Measured values reported in publication PMC12555108, “In‐vitro Assessment of BCRP‐Mediated Efflux of Antiseizure Medications in Human Blood‐Brain Barrier Cell Model” (Journal of Biochemical and Molecular Toxicology, 2025).

Key:
[1] = biological target: T1, BCRP (Homo sapiens, UniProt Q9UNQ0); assay: competitive substrate efflux assay (BODIPY-prazosin accumulation) in hCMEC/D3 cells; type: cell-based
T1 sequence (Q9UNQ0 1-655): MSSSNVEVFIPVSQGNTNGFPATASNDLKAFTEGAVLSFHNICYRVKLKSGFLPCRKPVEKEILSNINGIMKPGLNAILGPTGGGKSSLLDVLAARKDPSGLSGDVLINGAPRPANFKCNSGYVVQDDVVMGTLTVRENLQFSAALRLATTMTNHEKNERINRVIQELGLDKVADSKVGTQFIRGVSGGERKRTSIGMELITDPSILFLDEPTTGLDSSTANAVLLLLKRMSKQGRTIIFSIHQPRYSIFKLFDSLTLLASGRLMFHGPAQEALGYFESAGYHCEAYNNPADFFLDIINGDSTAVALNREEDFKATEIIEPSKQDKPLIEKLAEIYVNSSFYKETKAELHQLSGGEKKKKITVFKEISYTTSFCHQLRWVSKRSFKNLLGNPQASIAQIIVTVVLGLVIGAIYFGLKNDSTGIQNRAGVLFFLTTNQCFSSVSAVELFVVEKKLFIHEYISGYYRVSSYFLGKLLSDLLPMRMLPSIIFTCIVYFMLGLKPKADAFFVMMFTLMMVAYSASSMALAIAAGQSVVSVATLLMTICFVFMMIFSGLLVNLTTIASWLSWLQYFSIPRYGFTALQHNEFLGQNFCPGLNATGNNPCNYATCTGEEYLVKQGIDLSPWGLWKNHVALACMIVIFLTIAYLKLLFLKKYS
Procedure: The potential of ASMs to compete with a known fluorescent substrate of BCRP, BPZ in hCMEC/D3 cells was examined using a competitive substrate efflux assay that has previously been used in various studies. The interaction of CBZ, DCLB, OXC, TPM, and LEVI with BCRP was evaluated. Initially, hCMEC/D3 were seeded in 12‐well plates (cat. no. 150628, Nunc, Thermo Fisher Scientific, MA, USA) at 70‐80% confluency for 24 h. In this study, Ko143 was used for BCRP inhibition. The cultured cells were incubated at 37°C for half an hour in media containing BPZ with either the test ASMs or Ko143. Cells were washed with chilled 1X PBS three times and again incubated at 37°C for 1 h 30 min in BPZ‐free media with or without Ko143. Cells were washed three times with ice‐cold 1X PBS to terminate the assay. Cell lysis was performed by adding 1% triton X‐100, followed by incubating the cells for 15 min at 37°C. 20 µl of cell lysate was placed in 384‐well black assay plates for fluorescence detection (excitation at 488 nm; emission at 530 nm) to Infinite 200 PRO NanoQuant (Tecan, Zurich, Switzerland). The rest of the cell lysate was used for determining protein levels using the BCA protein estimation method to normalize the observed fluorescence intensity with total protein yield. The data were shown as a fold increment in intracellular fluorescence of BPZ relative to the control.

[2] = biological target: T1, BCRP; assay: bidirectional transport assay across hCMEC/D3 cell monolayer with or without Ko143; details: for transport by BCRP (conclusion of bidirectional transport assay): ER ≥ 1.5 and significantly reduced by Ko143; for Papp A→B at 2 h, 21 μM / Papp A→B at 2 h, 42 μM / Papp B→A at 2 h, 21 μM / Papp B→A at 2 h, 42 μM / efflux ratio at 2 h / efflux ratio at 2 h, 21 μM / efflux ratio at 2 h, 42 μM: human; for efflux ratio at 2 h: pH 7.4, Efflux ratio (ER) without inhibitor
Procedure: For transport assays, hCMEC/D3 cells were seeded on collagen type I‐coated Transwell inserts (polycarbonate 12‐well, pore size […]) (cat. no. CLS3460; Corning, NY, USA) at 80% confluency and cultured as described in section 2.5. In brief, the drug was dissolved in Hanks’ balanced salt solution supplemented with 10 mM HEPES, 1 mM Na‐Pyruvate, pH 7.4 at 37°C (transport buffer). Initially, both sides of the chamber were washed with 1X PBS and the assay was performed with pre‐warmed transport buffer. 0.5 ml or 1.5 ml of the drug solution, with or without BCRP‐specific inhibitor Ko143 (1 μM) was added to either the apical side or basolateral side of the monolayer, respectively, and fresh transport buffer was added to the opposite side. Aliquots of 100 μl samples were taken from the opposite sides every 30 min for 2 h, and the same amount of fresh transport buffer was added to the same chamber after each sampling. […] Concentrations of ASMs were evaluated by HPLC or LC/MS. Apparent permeability (Papp) is defined as the transport rate of ASM and efflux ratio (ER) was calculated as the ratio of Papp in the basolateral‐to‐apical (Papp(B→A)) direction to the Papp in the apical‐to‐basolateral (Papp(A→B)) direction. The samples were stored at −20°C until analysis. […] Fluorescence detection of lucifer yellow (excitation at 430 nm, and emission at 535 nm) was carried out with Infinite 200 PRO NanoQuant (Tecan, Zurich, Switzerland). […] All transport assays were performed in triplicate.
The calculation for apparent permeability coefficient, Papp, was performed as described before. Papp=dQr/dt/A×C0 where dQr/dt is the cumulative amount in the receiver side vs time in μM/s
A is the area of the cell monolayer
C0 is the initial concentration of the dosing solution (μM).
And, Efflux ratio=Papp(B−to−A)/Papp(A−to−B)

[3] = parameters: method as in Johannessen, 2004; Patsalos, 2008; Lee, 2016; details: patients with epilepsy; ref Johannessen, 2004; Patsalos, 2008; Lee, 2016; cited from earlier work
[4] = biological target: T1, BCRP; parameters: host or cells: MCF-7 cells overexpressing BCRP; details: previous study; cited from earlier work
[5] = biological target: T1, BCRP; assay: vanadate-sensitive BCRP ATPase assay (membrane vesicles from MCF-7 cells overexpressing BCRP); type: biochemical; parameters: host or cells: MCF-7 cells overexpressing BCRP; details: […] µM
Procedure: To assess the interaction between ASMs and BCRP, a vanadate‐sensitive ATPase assay was performed as per the manufacturer's instructions manual. […] After 10 min, 1x developer solution was added and kept for 2 min. To stop the reaction, 100 µL blocker solution was added and incubated for 30 min. at 37°C. The optical densities were measured at 620 nm using an Infinite 200 PRO NanoQuant (Tecan, Zurich, Switzerland) plate reader. 1 μM Ko143 was used as a positive control for BCRP inhibition. Ko143 was used at a concentration that is known to inhibit BCRP efficiently. The results were expressed as vanadate‐sensitive ATPase activity that is based on the difference in inorganic phosphate released between samples with and without vanadate. This will evaluate the ability of the test ASM to stimulate BCRP's baseline ATPase activity.

[6] = at all the tested concentrations, hCMEC/D3 monolayer
[7] = 5 μM, hCMEC/D3 monolayer, 1 μM Ko143
[8] = 10 μM, hCMEC/D3 monolayer, 1 μM Ko143

SMILES: NC(=O)N1c2ccccc2C=Cc2ccccc21 [CBZ, carbamazepine]
- intracellular accumulation of BPZ in hCMEC/D3 cells [1]: did not affect
- transport by BCRP (conclusion of bidirectional transport assay) ([2]; hCMEC/D3 monolayer): not
- Papp A→B at 2 h, 21 μM ([2]; pH 7.4): 3.37 ×10⁻⁶ cm/s
- Papp A→B at 2 h, 42 μM ([2]; pH 7.4): 3.37 ×10⁻⁶ cm/s
- Papp B→A at 2 h, 21 μM ([2]; pH 7.4): 4.27 ×10⁻⁶ cm/s
- Papp B→A at 2 h, 42 μM ([2]; pH 7.4): 4.04 ×10⁻⁶ cm/s
- efflux ratio at 2 h [2, 6]: < 1.5
- efflux ratio at 2 h, 21 μM ([2]; pH 7.4, Efflux ratio (ER), hCMEC/D3 without inhibitor Ko143, 21 μM, hCMEC/D3 monolayer): 1.23
- efflux ratio at 2 h, 42 μM ([2]; pH 7.4, Efflux ratio (ER), hCMEC/D3 without inhibitor Ko143, 42 μM, hCMEC/D3 monolayer): 1.18
- Papp A→B at 2 h, 21 μM ([2]; pH 7.4, with Ko143 1 μM): 4.72 ×10⁻⁶ cm/s
- Papp A→B at 2 h, 42 μM ([2]; pH 7.4, with Ko143 1 μM): 3.82 ×10⁻⁶ cm/s
- Papp B→A at 2 h, 21 μM ([2]; pH 7.4, with Ko143 1 μM): 3.03 ×10⁻⁶ cm/s
- Papp B→A at 2 h, 42 μM ([2]; pH 7.4, with Ko143 1 μM): 4.27 ×10⁻⁶ cm/s
- efflux ratio at 2 h, 21 μM ([2]; pH 7.4, with Ko143 1 μM, Efflux ratio (ER), hCMEC/D3 with inhibitor Ko143, 21 μM, hCMEC/D3 monolayer, 1 μM Ko143): 0.98
- efflux ratio at 2 h, 42 μM ([2]; pH 7.4, with Ko143 1 μM, Efflux ratio (ER), hCMEC/D3 with inhibitor Ko143, 42 μM, hCMEC/D3 monolayer, 1 μM Ko143): 1.12
- Therapeutic plasma concentration range [3]: 15 to 45 µM
- stimulation of BCRP ATPase activity [4]: no significant stimulation

SMILES: O=C1CC(=O)N(c2ccccc2)c2cc(Cl)ccc2N1 [DCLB, N‐desmethyl clobazam]
- BPZ accumulation in hCMEC/D3 cells ([1]; 1 and 10 µM): significantly increased
- Efflux ratio (ER), hCMEC/D3 without inhibitor Ko143 ([2]; 5 μM, hCMEC/D3 monolayer): 2
- Papp A-->B, hCMEC/D3 without inhibitor Ko143 ([2]; 5 μM, hCMEC/D3 monolayer): 2.83 ×10⁻⁶ cm/s
- Papp B-->A, hCMEC/D3 without inhibitor Ko143 ([2]; 5 μM, hCMEC/D3 monolayer): 5.66 ×10⁻⁶ cm/s
- Efflux ratio (ER), hCMEC/D3 with inhibitor Ko143 [2, 7]: ~1
- Papp A-->B, hCMEC/D3 with inhibitor Ko143 [2, 7]: 5.66 ×10⁻⁶ cm/s
- Papp B-->A, hCMEC/D3 with inhibitor Ko143 [2, 7]: 5.66 ×10⁻⁶ cm/s
- Efflux ratio (ER), hCMEC/D3 without inhibitor Ko143 ([2]; 5 μM, hCMEC/D3 monolayer, listed as N‐desmethyl clobazam): 2.0
- Efflux ratio (ER), hCMEC/D3 without inhibitor Ko143 ([2]; 10 μM, hCMEC/D3 monolayer): 2
- Papp A-->B, hCMEC/D3 without inhibitor Ko143 ([2]; 10 μM, hCMEC/D3 monolayer): 2.83 ×10⁻⁶ cm/s
- Papp B-->A, hCMEC/D3 without inhibitor Ko143 ([2]; 10 μM, hCMEC/D3 monolayer): 5.66 ×10⁻⁶ cm/s
- Efflux ratio (ER), hCMEC/D3 with inhibitor Ko143 [2, 8]: ~1
- Papp A-->B, hCMEC/D3 with inhibitor Ko143 [2, 8]: 2.83 ×10⁻⁶ cm/s
- Papp B-->A, hCMEC/D3 with inhibitor Ko143 [2, 8]: 2.83 ×10⁻⁶ cm/s
- Efflux ratio (ER), hCMEC/D3 without inhibitor Ko143 ([2]; 10 μM, hCMEC/D3 monolayer, listed as N‐desmethyl clobazam): 2.0
- Efflux ratio (ER) without inhibitor [2, 6]: above 1.5
- Efflux ratio (ER) in the presence of Ko143 ([2]; at all the tested concentrations, hCMEC/D3 monolayer, 1 μM Ko143): ~1
- transport by BCRP (conclusion of bidirectional transport assay) ([2]; hCMEC/D3 monolayer): transports
- Therapeutic plasma concentration range [3]: 1 to 10 µM
- stimulation of BCRP ATPase activity (activation assay) [5]: significantly stimulated

SMILES: CC[C@@H](C(N)=O)N1CCCC1=O [LEVI, levetiracetam]
- intracellular accumulation of BPZ in hCMEC/D3 cells [1]: did not affect
- transport by BCRP (conclusion of bidirectional transport assay) ([2]; hCMEC/D3 monolayer): not
- directional transport ([2]; hCMEC/D3 monolayer, data not shown): did not show any directional transport
- efflux ratio at 2 h [2, 6]: < 1.5
- Therapeutic plasma concentration range [3]: 35 to 120 µM
- stimulation of BCRP ATPase activity [4]: no significant stimulation
